In series [1] the target is T1, human β3 (Homo sapiens, UniProt P13945).
T1 construct: the full length human β3 gene was obtained from a human genomic library; expressed in transfected cells; host or cells: CHO (Chinese hamster ovary) cells, pcDNA3 vector, geneticin selection
Nature of the series: Human β3-agonist activities: cAMP in CHO cells transfected with human β3 gene. Type of series: cell-based. To be noted: for Emax: CHO, read-out: *Intrinsic Activity (%); for EC50 / *Intrinsic Activity (%): cAMP, 30 minutes, CHO cells expressing human β3; for EC50: read-out: ED50 (the source's name); for *Intrinsic Activity (%): relative value as compared with isoproterenol. The method, then:
Human β3-agonist activities were determined using CHO (Chinese hamster ovary) cells transfected with pcDNA3 (mfd. by Invitrogen) to which human β3 gene had been inserted. Human β3 fragment was first obtained from human adipose tissue cDNA (mfd. by Clonetech) by PCR using the primer of β3 (Krief, et al., J. Clin. Invest., 91, pp. 344-349 (1993)). The human β3 fragment obtained was then used as a probe and then the full length human β3 gene was obtained from a human genomic library (mfd. by Clonetech).
The above cells were cultured in a Ham F-12 medium supplemented with 10% fetal bovine serum (mfd. by Dainippon Pharmaceutical), 400 µg/mL geneticin (Gibco BRL), 100 U/mL penicillin and 100 µg/mL streptomycin. After placing these cells (5×10^5) into a 6-well plate and culturing them for 24 hours, they were allowed to stand on a serum-free Ham F-12 medium for 2 hours. The compound was first dissolved in DMSO, repeatedly diluted by ten times with Ham F-12 supplemented with 1 mM isobutylmethylxanthine and 1 mM ascorbic acid to a final concentration of 10^-5 to 10^-12 M, and then added to the cells.
After the cells were cultured for 30 minutes, the medium was removed followed by addition of 0.5 mL of 1 N NaOH. The medium was allowed to stand for 20 minutes and then 0.5 mL of 1 N acetic acid was added to the medium. The medium was stirred and centrifuged followed by quantitating cAMP with cAMP EIA kit (mfd. by Cayman). […]

Series [2] can be described thus: Permeability through human small intestine epithelium (Caco-2 cell layer). To be noted: human, Caco-2. From the text: (§1) Human colon adenocarcinoma, Caco-2 cell, when cultured, spontaneously differenciates to form a cell layer consisting of a polar single layer having microvillus similar to small intestine epithelial cell. The presence of tight junction has been found out in the membrane formed. Therefore, the above cell layer can be used as a model system of human small intestine epithelium and is recognized as the simplest system to evaluate the permeability through a membrane of a drug orally administered to human. The specific experimental method is as follows.
(§2) Before the cells reached confluence, DMEM was removed and the flask was washed with PBS (phosphate buffered saline, pH 7.2, Ca, Mg free (Gibco BRL)) and treated with trypsin/EDTA to peel off the cells, which were then harvested.
(§3) After centrifugation (1000 rpm, 5 min), the cells were resuspended in DMEM at 4.4×10^5 cells/mL. The cells were seeded into Transwell cell culture chamber (mfd. by Costar) having a collagen-coated membrane filter (3 µm pores, 0.33 cm^2 growth area) at 0.15 mL/well (2×10^5 cells/cm^2, 24 well). After seeding, DMEM was renewed every other day. After culturing for 18 to 25 days, a membrane formed having a membrane resistance of at least 200 Ω · cm^2 was applied to the drug permeation experiment.
(§4) DMEMs in the cup side and base side of Transwell were removed and then replaced with a buffer for the permeation experiment (HBSS (Hanks Balanced Salt Solution, Gibco BRL), 10 mM Mes, pH 6.5 (mfd. by DOJINDO) or 10 mM Hepes, pH 7.4 (mfd. by DOJINDO) containing 25 mM glucose and 0.05% Tween 80). The cup side buffer (0.15 mL) was maintained at pH 6.5 and the base side buffer (0.8 mL) was maintained at pH 7.4. After pre-incubation at 37°C for 10 minutes, the cup side buffer was replaced with the buffer (pH 6.5) containing a drug (20-40 µM). With additionally incubating at 37°C, 80 µL aliquot of the base side buffer was sampled with the passage of time to quantitate the amount of the drug permeated into the base side buffer.
(§5) The amount of the drug contained in the base side buffer sampled with the passage of time was divided by the time to calculate the amount of the drug permeated per unit time (sec). It was then divided by the concentration of the drug added and the surface area of the membrane to calculate the permeability coefficient (Papp). That is, the permeability coefficient (Papp) is obtained by the following calculating formula.
(§6) In this connection, the quantitation of the drug was carried out with LC/MS or HPLC (detecting with fluorescence). The conditions of LC/MS and HPLC are as follows.
(In general: Caco-2 monolayers are a common model of the intestinal barrier.)

In series [3] the test system is Caco-2 cell. Described as above. To be noted: Caco-2 layer, cup side pH 6.5, base side pH 7.4, drug 20-40 µM, 37°C.
Text: as §1, §2, §3, §4, §5, §6

T1 sequence (P13945 whole entry): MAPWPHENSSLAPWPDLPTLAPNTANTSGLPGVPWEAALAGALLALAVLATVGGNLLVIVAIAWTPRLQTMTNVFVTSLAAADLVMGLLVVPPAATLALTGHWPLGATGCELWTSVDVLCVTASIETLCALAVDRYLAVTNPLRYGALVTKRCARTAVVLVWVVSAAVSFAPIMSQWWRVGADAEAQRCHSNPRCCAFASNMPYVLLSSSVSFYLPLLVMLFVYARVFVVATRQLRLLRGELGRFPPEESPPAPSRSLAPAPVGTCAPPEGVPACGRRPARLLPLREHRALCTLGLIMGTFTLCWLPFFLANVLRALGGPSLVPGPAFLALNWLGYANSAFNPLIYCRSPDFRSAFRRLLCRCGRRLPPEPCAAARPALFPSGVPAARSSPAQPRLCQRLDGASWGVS

What is called Papp A→B is how fast a substance crosses the layer from the apical side. A low value points to poor permeation. For the compound `CS(=O)(=O)N1COc2ccc([C@@H](O)CNCCOc3ccc4c(c3)[nH]c3ccccc34)cc21` [Example 3, (R)-5-[2-[2-(9H-carbazol-2-yloxy)ethylamino]-1-hydroxyethyl]-3-(methylsulfonyl)-2,3-dihydrobenzoxazole], in series [1], the Emax was determined as 70% and the EC50 amounted to 65 nM. In series [2], this compound yielded an apparent permeability from apical to basolateral (Papp A→B) of 1.03 ×10⁻⁶ cm/s.

Consider `CN(C)S(=O)(=O)n1c(=S)oc2ccc([C@@H](O)CNCCOc3ccc4c(c3)[nH]c3ccccc34)cc21` [Example 8, (R)-3-[(dimethylamino)sulfonyl]-5-[2-[2-(9H-carbazol-2-yloxy)ethylamino]-1-hydroxyethyl]-3-hydrobenzoxazol-2-thione], for which, in series [1], the Emax is 99% and the EC50 amounted to 610 nM.

`CS(=O)(=O)N1CCOc2ccc([C@@H](O)CNCCOc3ccc4c(c3)[nH]c3ccccc34)cc21` [Example 2, (R)-6-[2-[2-(9H-carbazol-2-yloxy)ethylamino]-1-hydroxyethyl]-4-(methylsulfonyl)-2,3-dihydro-1,4-benzoxazine]: in series [1], the Emax is 69% and the EC50 stood at 12 nM. In series [2], the Papp A→B is 0.93 ×10⁻⁶ cm/s.

On to `CN(C)S(=O)(=O)n1c(=O)oc2ccc([C@@H](O)CNCCOc3ccc4c(c3)[nH]c3ccccc34)cc21` [Example 7, (R)-3-[(dimethylamino)sulfonyl]-5-[2-[2-(9H-carbazol-2-yloxy)ethylamino]-1-hydroxyethyl]-3-hydrobenzoxazol-2-one], for which, in series [1], the EC50 was determined as 100 nM and the “*Intrinsic Activity (%)” value worked out at 76%. Moreover, the “Permeability Coefficient Papp × 10^-6 (cm/s)” value in series [3] is recorded as 0.78 × 10^-6 cm/s.

With `CS(=O)(=O)N1CCCOc2ccc([C@@H](O)CNCCOc3ccc4c(c3)[nH]c3ccccc34)cc21` [Example 4, (R)-7-[2-[2-(9H-carbazol-2-yloxy)ethylamino]-1-hydroxyethyl]-5-(methylsulfonyl)-2H,3H,4H-benzo[b]1,4-oxazepine], in series [1], the Emax was found to be 107% and the EC50 amounted to 620 nM. Also, the Papp A→B in series [2] was 1.93 ×10⁻⁶ cm/s.

With `O=c1[nH]c2cc([C@@H](O)CNCCOc3ccc4c(c3)[nH]c3ccccc34)ccc2o1` [Example 10, (R)-5-[2-[2-(9H-carbazol-2-yloxy)ethylamino]-1-hydroxyethyl]-3-hydrobenzoxazol-2-one], in series [1], the EC50 is 170 nM and the “*Intrinsic Activity (%)” value worked out at 99%. Further, the “Permeability Coefficient Papp × 10^-6 (cm/s)” value in series [3] was 0.54 × 10^-6 cm/s.

As to `CC(C)NCC(O)c1ccc(O)c(O)c1` (stereo not drawn) [Isoproterenol, reference compound], the “*Intrinsic Activity (%)” value in series [1] worked out at 100%.

The values above are taken from EP1142883A1, “NOVEL HETEROCYCLIC COMPOUNDS AND DRUG COMPOSITIONS CONTAINING THE SAME” (Asahi Kasei Kabushiki Kaisha, priority 1998, dated 2000).
